The text below walks through data of paper PMC2442905 (British Journal of Pharmacology, 2008).

Read-outs that look alike come from different tables or passages of the source. A value given as a limit tells only on which side of the number the result lay.

Data set [1] can be described thus: Drug concentrations in plasma of guinea-pigs. Type of data set: in vivo. To be noted: anaesthetized guinea-pig.
In data set [2] the target is T1, hERG potassium channels stably expressed in CHO-K1 cells (Homo sapiens, UniProt Q12809). Put plainly: cell-based. To be noted: 25 °C, 400-ms pulse protocol.
T1 sequence (Q12809 whole entry, the tested form may be a part): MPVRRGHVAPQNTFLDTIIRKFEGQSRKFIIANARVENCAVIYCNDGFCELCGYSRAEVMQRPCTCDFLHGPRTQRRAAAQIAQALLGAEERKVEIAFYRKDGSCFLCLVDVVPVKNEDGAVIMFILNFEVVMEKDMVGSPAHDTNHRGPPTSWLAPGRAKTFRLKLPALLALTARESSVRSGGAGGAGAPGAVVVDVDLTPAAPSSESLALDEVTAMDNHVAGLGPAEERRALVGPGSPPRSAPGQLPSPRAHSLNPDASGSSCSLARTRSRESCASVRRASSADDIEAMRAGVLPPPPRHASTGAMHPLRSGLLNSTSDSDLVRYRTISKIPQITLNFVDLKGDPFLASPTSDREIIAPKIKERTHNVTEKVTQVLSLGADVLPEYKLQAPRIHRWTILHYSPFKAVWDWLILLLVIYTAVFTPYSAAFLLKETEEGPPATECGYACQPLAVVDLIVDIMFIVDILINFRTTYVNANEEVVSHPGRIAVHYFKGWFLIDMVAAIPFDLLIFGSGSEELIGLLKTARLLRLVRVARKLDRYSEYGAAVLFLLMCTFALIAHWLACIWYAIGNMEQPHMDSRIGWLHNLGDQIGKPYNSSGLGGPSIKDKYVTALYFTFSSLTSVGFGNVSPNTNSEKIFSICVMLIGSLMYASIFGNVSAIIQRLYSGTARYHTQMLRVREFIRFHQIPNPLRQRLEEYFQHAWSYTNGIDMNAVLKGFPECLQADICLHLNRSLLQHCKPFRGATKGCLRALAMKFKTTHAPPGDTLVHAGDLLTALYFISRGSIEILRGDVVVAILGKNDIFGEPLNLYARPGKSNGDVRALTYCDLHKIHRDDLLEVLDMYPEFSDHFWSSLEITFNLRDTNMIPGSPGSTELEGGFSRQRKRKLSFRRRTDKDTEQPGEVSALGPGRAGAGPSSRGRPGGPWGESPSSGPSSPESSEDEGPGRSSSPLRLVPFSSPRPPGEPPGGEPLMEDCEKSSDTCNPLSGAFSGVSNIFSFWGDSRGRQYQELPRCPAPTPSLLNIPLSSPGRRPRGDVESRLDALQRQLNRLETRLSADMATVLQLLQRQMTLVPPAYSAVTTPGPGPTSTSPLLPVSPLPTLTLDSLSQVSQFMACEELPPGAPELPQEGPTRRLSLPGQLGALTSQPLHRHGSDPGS
Data set [3] concerns anaesthetized guinea-pigs (QTc interval of the ECG). In words: Anaesthetized guinea-pig QT. Type of data set: in vivo. To be noted: for QTc increase of 5% over vehicle (risk signal): low, medium and high doses; for increase (change) of baseline-corrected QTc over vehicle / mean baseline-corrected QTc: highest dose level; for increase (change) of baseline-corrected QTc over vehicle / mean baseline-corrected QTc / effect on QT/QTc interval in the guinea-pig model (in words): i.v. infusion over 10 min.

Data set [4] deals with T1, hERG potassium channels stably expressed in CHO-K1 cells. To be noted: for hERG inhibition (in words): group C drugs: at the highest concentration permitted by solubility. A general note: hERG is a cardiac potassium channel; its block is linked to QT prolongation.
In data set [5] the test system is plasma proteins. To be noted: human; cited from earlier work.
The conditions of data set [6]: read-out: Human plasma Cmax; single 400 mg dose in humans; cited from earlier work.
Data set [7] deals with anaesthetized guinea-pigs. Put plainly: Heart rate and mean blood pressure recordings in anaesthetized guinea-pigs. Particulars: limited the maximum dose to 3 mg kg^−1. The data set is classed as in vivo, guinea-pig.

As to `CC(C)NCC(O)c1ccc(NS(C)(=O)=O)cc1` (racemic) [D,L-Sotalol], the Peak plasma level is 18.2±1.5 (5) μm in data set [1] (1 mg kg^−1 i.v. over 10 min), 41.3±4.8 (4) μm in data set [1] (3 mg kg^−1 i.v. over 10 min) and 145.9±16.6 (5) μm in data set [1] (10 mg kg^−1 i.v. over 10 min).
`CC1(C)S[C@@H]2[C@H](NC(=O)[C@H](N)c3ccc(O)cc3)C(=O)N2[C@H]1C(=O)O` [Amoxicillin]: the Peak plasma level in data set [1] (3 mg kg^−1 i.v. over 10 min) is 4.8±0.5 (5) μm; in data set [1] (10 mg kg^−1 i.v. over 10 min), 14.6±1.4 (4) μm; in data set [1] (20 mg kg^−1 i.v. over 10 min) it was 30.3±2.5 (5) μm.
With `CC(=O)Oc1ccccc1C(=O)O` [Aspirin], the results for the Peak plasma level in data set [1] (1 mg kg^−1 i.v. over 10 min), in data set [1] (3 mg kg^−1 i.v. over 10 min) and in data set [1] (10 mg kg^−1 i.v. over 10 min) were 31.1±2.3 (5) μm, 74.6±2.1 (5) μm and 468±78 (4) μm, respectively. In data set [2], the concentration for half-maximal inhibition (IC50) was > 100000 µM. The “QTc increase of 5% over vehicle (risk signal)” value (shortened to “QTc increase of 5% over vehicle”) in data set [3] is reported as “did not reach the 5% increase of QTc”. Besides, the “hERG inhibition (in words)” value in data set [4] is listed as “no hERG inhibition was observed”. The “Free safety margin (hERG IC50/ free Cmax)” value (from here on “Free safety margin”) was >4512 in data set [4] (hERG IC50 divided by human free plasma Cmax) and “above 300” in data set [4] (hERG IC50 divided by human free plasma Cmax, listed as aspirin).
On to `C[C@H](CS)C(=O)N1CCC[C@H]1C(=O)O` [Captopril], for which the Peak plasma level in data set [1] (3 mg kg^−1 i.v. over 10 min) was 57.8±1.6 (2) μm. Also, in data set [1] (10 mg kg^−1 i.v. over 10 min), the Peak plasma level was 142±15 (2) μm. The Peak plasma level in data set [1] (30 mg kg^−1 i.v. over 10 min) is given as 313±112 (2) μm. Further, in data set [3], the “increase (change) of baseline-corrected QTc over vehicle” value (“increase (change)” for short) was −7.3%, the “mean baseline-corrected QTc” value was −6.0%, the “effect on QT/QTc interval in the guinea-pig model (in words)” value is reported as “QTc actually dropped below vehicle” and the “QTc increase of 5% over vehicle” value is listed as “did not reach the 5% increase of QTc”. For the same compound, the “hERG inhibition (in words)” value in data set [4] was “no hERG inhibition was observed”.
Regarding `COc1cc(N)c(Cl)cc1C(=O)NC1CCN(CCCOc2ccc(F)cc2)CC1OC` (stereo not shown) [Cisapride], the figures for the Peak plasma level in data set [1] (0.1 mg kg^−1 i.v. over 10 min), in data set [1] (0.3 mg kg^−1 i.v. over 10 min) and in data set [1] (1 mg kg^−1 i.v. over 10 min) were 0.037±0.023 (4) μm, 0.129±0.032 (4) μm and 0.496±0.085 (5) μm, respectively.
As for `O=C(CCCN1CC=C(n2c(=O)[nH]c3ccccc32)CC1)c1ccc(F)cc1` [Droperidol], the results for the Peak plasma level in data set [1] (0.03 mg kg^−1 i.v. over 10 min), in data set [1] (0.1 mg kg^−1 i.v. over 10 min) and in data set [1] (0.3 mg kg^−1 i.v. over 10 min) were 0.55±0.07 (3) μm, 0.62±0.05 (5) μm and 1.21±0.34 (5) μm, respectively.
For `O=C(CCCN1CCC(O)(c2ccc(Cl)cc2)CC1)c1ccc(F)cc1` [Haloperidol], in data set [5], the Protein binding is 90%. In addition, in data set [4] (human, pH 7.4), the “Free safety margin” value is listed as 1.4 and the “Total safety margin (hERG IC50/ total Cmax)” value (“Total safety margin” below) stood at 0.1.
Turning to `COc1c(N2C[C@@H]3CCCN[C@@H]3C2)c(F)cc2c(=O)c(C(=O)O)cn(C3CC3)c12` [Moxifloxacin], the Peak plasma level in data set [1] (1 mg kg^−1 i.v. over 10 min) is given as 2.08±0.28 (4) μm. Also, in data set [1] (5 mg kg^−1 i.v. over 10 min), the Peak plasma level is reported as 30.6±7.2 (4) μm. For the same compound, the Peak plasma level in data set [1] (10 mg kg^−1 i.v. over 10 min) is on record as 80.5±4.0 (5) μm. In data set [3], the “increase (change)” value is listed as 16.8%, the “mean baseline-corrected QTc” value stood at 18.3% and the “effect on QT/QTc interval in the guinea-pig model (in words)” value is “dose-dependent QTc prolongation”. For the same compound, the peak concentration (Cmax) in data set [6] is ~7 µM.
As for `CC(C)NCC(O)COc1cccc2ccccc12` (stereo not shown) [Propranolol], the Protein binding in data set [5] is 85%. Further, the Peak plasma level in data set [1] (0.3 mg kg^−1 i.v. over 10 min) was 0.50±0.03 (3) μm; in data set [1] (1 mg kg^−1 i.v. over 10 min), 1.84±0.41 (3) μm; in data set [1] (3 mg kg^−1 i.v. over 10 min) it was 4.65±0.40 (5) μm. In data set [3], the “QTc increase of 5% over vehicle” value is “did not reach the 5% increase of QTc”.
For `C=C[C@H]1C[N@@]2CC[C@H]1C[C@@H]2[C@@H](O)c1ccnc2ccc(OC)cc12` [Quinidine], the Peak plasma level is 6.2±0.08 (3) μm in data set [1] (3 mg kg^−1 i.v. over 10 min) and 27.8±8.0 (5) μm in data set [1] (10 mg kg^−1 i.v. over 10 min).
For `C[C@@H]1CN(c2c(F)c(N)c3c(=O)c(C(=O)O)cn(C4CC4)c3c2F)C[C@H](C)N1` [Sparfloxacin], the Peak plasma level in data set [1] (3 mg kg^−1 i.v. over 10 min) is given as 23.5±4.2 (3) μm; in data set [1] (10 mg kg^−1 i.v. over 10 min), 80.4±9.1 (5) μm; in data set [1] (30 mg kg^−1 i.v. over 10 min) it was 159.4±22.4 (4) μm. This compound also came in with a concentration for half-maximal inhibition (IC50) in data set [2] of 24 µM. Besides, in data set [3], the “increase (change)” value amounted to 19.6%. The “mean baseline-corrected QTc” value in data set [3] is listed as 20.0%. Besides, in data set [4] (human, pH 7.4), the “Free safety margin” value turned out to be 3.757. Besides, the “Total safety margin” value in data set [4] (human, pH 7.4) was found to be 2.477.
Take `CC/C(=C(\c1ccccc1)c1ccc(OCCN(C)C)cc1)c1ccccc1` [Tamoxifen]: the Peak plasma level in data set [1] (3 mg kg^−1 i.v. over 10 min) is given as 3.8±0.8 (4) μm; in data set [1] (10 mg kg^−1 i.v. over 10 min), 10.5±2.1 (5) μm; in data set [1] (30 mg kg^−1 i.v. over 10 min) it was 60.0±20.0 (5) μm. Moreover, in data set [3], the “mean baseline-corrected QTc” value is recorded as 8.4%.
In the case of `CC(C)(C)c1ccc(C(O)CCCN2CCC(C(O)(c3ccccc3)c3ccccc3)CC2)cc1` (stereo not shown) [Terfenadine], the “haemodynamic effects (in words)” value in data set [7] was “marked bradycardia and resultant hypotension”.
Take `COc1ccc(CCN(C)CCCC(C#N)(c2ccc(OC)c(OC)c2)C(C)C)cc1OC` (stereo not shown) [Verapamil]: the “QTc increase of 5% over vehicle” value in data set [3] is reported as “did not reach the 5% increase of QTc”.
In the case of `O=C1Cc2cc(CCN3CCN(c4nsc5ccccc45)CC3)c(Cl)cc2N1` [Ziprasidone], the Peak plasma level in data set [1] (0.1 mg kg^−1 i.v. over 10 min) is listed as 1.1±0.2 (4) μm; in data set [1] (0.3 mg kg^−1 i.v. over 10 min) it was 1.2±0.1 (2) μm; in data set [1] (1 mg kg^−1 i.v. over 10 min), 4.0±2.2 (2) μm. Further, in data set [4] (human, pH 7.4), the “Free safety margin” value is given as 286.45. For the same compound, in data set [4] (human, pH 7.4), the “Total safety margin” value worked out at 0.573.

By IC50 is commonly meant the concentration at which inhibition is half-maximal. A lower IC50 goes with inhibition by little substance. The term Cmax denotes the maximum level reached in the sampled fluid or tissue.
